Experimental data published in US20230181536A1, “ANTICANCER COMBINATION THERAPY WITH N-(1-ACRYLOYL-AZETIDIN-3-YL)-2-((1H-INDAZOL-3-YL)AMINO)METHYL)-1H-IMIDAZOLE-5-CARBOXAMIDE INHIBITOR OF KRAS-G12C” (TAIHO PHARMACEUTICAL CO., LTD., priority 2020, published 2023).

The molecules below were run against T1, KRAS G12C (Homo sapiens, UniProt P01116, G12C) (assay: Inhibitory activity on the KRAS G12C nucleotide (GDP-GTP) exchange reaction). Conditions: Bodipy FL GDP-bound KRAS G12C 25 nM; preincubation at 25° C. for 4 hours; SOS1 100 nM, GppNHp 1 μM, reaction for 30 minutes.
T1 construct: KRAS G12C (amino acid region: 1-169)
T1 sequence (P01116 1-169 isoform P01116-2 G12C): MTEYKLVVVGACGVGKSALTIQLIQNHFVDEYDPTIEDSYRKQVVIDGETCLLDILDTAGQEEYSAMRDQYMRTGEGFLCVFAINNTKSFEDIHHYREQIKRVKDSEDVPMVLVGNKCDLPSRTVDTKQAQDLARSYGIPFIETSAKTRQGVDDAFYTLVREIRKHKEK
Type: biochemical
Outline: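 Bodipy FL-GDP-loaded KRAS G12C (aa 1-169, 25 nM) preincubated with compound 4 h at 25 °C in pH 7.5 Tris buffer, 5% DMSO; exchange started with SOS1 (aa 564-1049, 100 nM) and 1 μM GppNHp for 30 min. Fluorescence change (ex 485/em 520 nm) normalized to DMSO and no-GppNHp controls; IC50 calculated.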

IC50 [µM] | SMILES
0.008 | C=CC(=O)N1CC(NC(=O)c2c(Cl)nc(CNc3n[nH]c4cc(Cl)c(C(C)(C)C)cc34)n2C2CN(C(=O)OC(C)(C)C)C2)C1 [Example 106, Tert-butyl 3-(5-((1-acryloylazetidin-3-yl)carbamoyl)-2-(((5-(tert-butyl)-6-chloro-1H-indazol-3-yl)amino)methyl)-4-chloro-1H-imidazol-1-yl)azetidine-1-carboxylate]
0.007 | C=CC(=O)N1CC(NC(=O)c2c(Cl)nc(CNc3n[nH]c4cc(Cl)c(C(C)(C)C)cc34)n2[C@@H]2C[C@@H](O)[C@@H](O)C2)C1 [Example 99]
0.009 | C=CC(=O)N1CC(NC(=O)c2c(Cl)nc(CNc3n[nH]c4cc(Cl)c(C(C)(C)C)cc34)n2CC2CCCC2)C1 [Example 110, N-(1-acryloylazetidin-3-yl)-2-(((5-(tert-butyl)-6-chloro-1H-indazol-3-yl)amino)methyl)-4-chloro-1-(cyclopentylmethyl)-1H-imidazole-5-carboxamide]
0.008 | C=CC(=O)N1CC(NC(=O)c2c(Cl)nc(CNc3n[nH]c4cc(Cl)c(C(C)(C)C)cc34)n2C2CCCC2)C1 [Example 105, N-(1-acryloylazetidin-3-yl)-2-(((5-(tert-butyl)-6-chloro-1H-indazol-3-yl)amino)methyl)-4-chloro-1-cyclopentyl-1H-imidazole-5-carboxamide]
0.117 | C=CC(=O)N1C[C@@H](C)[C@@H](NC(=O)c2c(C(F)F)nc(CNc3n[nH]c4cc(Cl)c(C(C)(C)C)cc34)n2C)C1 [Example 71, N-((3R,4R)-1-acryloyl-4-methylpyrrolidin-3-yl)-2-(((5-(tert-butyl)-6-chloro-1H-indazol-3-yl)amino)methyl)-4-(difluoromethyl)-1-methyl-1H-imidazole-5-carboxamide]
2.35 | Cc1nc(CNc2n[nH]c3cc(Cl)c(C(C)(C)C)cc23)n(C(C)C)c1C(=O)NC1CN(C(=O)/C=C\Cl)C1 [Example 83, (Z)-2-(((5-(tert-butyl)-6-chloro-1H-indazol-3-yl)amino)methyl)-N-(1-(3-chloroacryloyl)azetidin-3-yl)-1-isopropyl-4-methyl-1H-imidazole-5-carboxamide]
0.013 | C=CC(=O)N1C[C@H](NC(=O)c2c(Cl)nc(CNc3n[nH]c4cc(Cl)c(C(C)(C)C)cc34)n2C)[C@@H](F)C1 [Example 76, N-((3S,4S)-1-acryloyl-4-fluoropyrrolidin-3-yl)-2-(((5-(tert-butyl)-6-chloro-1H-indazol-3-yl)amino)methyl)-4-chloro-1-methyl-1H-imidazole-5-carboxamide]
0.122 | Cc1nc(CNc2n[nH]c3cc(Cl)c(C(C)(C)C)cc23)n(C(C)C)c1C(=O)NC1CN(C(=O)/C=C/CN2CCCCC2)C1 [Example 79, (E)-2-(((5-(tert-butyl)-6-chloro-1H-indazol-3-yl)amino)methyl)-1-isopropyl-4-methyl-N-(1-(4-(piperidin-1-yl)but-2-enoyl)azetidin-3-yl)-1H-imidazole-5-carboxamide]
0.063 | CC(C)n1c(CNc2n[nH]c3cc(Cl)c(C(C)(C)C)cc23)nc(C(F)F)c1C(=O)NC1CN(C(=O)/C=C/CN(C)C)C1 [Example 84, (E)-2-(((5-(tert-butyl)-6-chloro-1H-indazol-3-yl)amino)methyl)-4-(difluoromethyl)-N-(1-(4-(dimethylamino)but-2-enoyl)azetidin-3-yl)-1-isopropyl-1H-imidazole-5-carboxamide]
0.158 | C=CC(=O)N1CC(NC(=O)c2cnc(CNc3n[nH]c4cc(Cl)c(C(C)(C)C)cc34)n2Cc2cc(OC)cc(OC)c2)C1 [Example 88, N-(1-acryloylazetidin-3-yl)-2-(((5-(tert-butyl)-6-chloro-1H-indazol-3-yl)amino)methyl)-1-(3,5-dimethoxybenzyl)-1H-imidazole-5-carboxamide]
0.009 | C=CC(=O)N1CC(NC(=O)c2c(Cl)nc(CNc3n[nH]c4cc(Cl)c(C(C)(C)C)cc34)n2C2CN(C(C)=O)C2)C1 [Example 108, 1-(1-acetylazetidin-3-yl)-N-(1-acryloylazetidin-3-yl)-2-(((5-(tert-butyl)-6-chloro-1H-indazol-3-yl)amino)methyl)-4-chloro-1H-imidazole-5-carboxamide]
0.019 | C=CC(=O)N1C[C@@H](CC#N)[C@@H](NC(=O)c2c(C)nc(CNc3n[nH]c4cc(Cl)c(C(C)(C)C)cc34)n2C)C1 [Example 65, N-((3R,4R)-1-acryloyl-4-(cyanomethyl)pyrrolidin-3-yl)-2-(((5-(tert-butyl)-6-chloro-1H-indazol-3-yl)amino)methyl)-1,4-dimethyl-1H-imidazole-5-carboxamide]
0.118 | C=CC(=O)N1CC(NC(=O)c2c(Cl)nc(CNc3n[nH]c4cc(Cl)c(C(C)(C)C)cc34)n2-c2ccccn2)C1 [Example 94, N-(1-acryloylazetidin-3-yl)-2-(((5-(tert-butyl)-6-chloro-1H-indazol-3-yl)amino)methyl)-4-chloro-1-(pyridin-2-yl)-1H-imidazole-5-carboxamide]

Continued, molecule first:

SMILES | IC50 [µM]
C=CC(=O)N1CC(NC(=O)c2c(C)nc(CNc3n[nH]c4cc(Cl)c(C(C)(C)C)cc34)n2CCCC)C1 [Example 18, N-(1-acryloylazetidin-3-yl)-1-butyl 2-(((5-(tert-butyl)-6-chloro-JH-indazol-3-yl)amino)methyl)-4-methyl-JH-imidazole-5-carboxamide] | 0.012
C=CC(=O)N1CC(NC(=O)c2c(C)nc(CNc3n[nH]c4cc(Cl)c(C(C)(C)C)cc34)n2C(F)F)C1 [Example 21, N-(1-acryloylazetidin-3-yl)-2-(((5-(tert-butyl)-6-chloro-1H-indazol-3-yl)amino)methyl)-1-(difluoromethyl)-4-methyl-1H-imidazole-5-carboxamide] | 0.058
C=CC(=O)N1CC(NC(=O)c2c(C)nc(CNc3n[nH]c4cc(Cl)c(C(C)(C)C)cc34)n2C(C)(C)C)C1 [Example 24, N-(1-acryloylazetidin-3-yl)-1-(tert-butyl)-2-(((5-(tert-butyl)-6-chloro-1H-indazol-3-yl)amino)methyl)-4-methyl-1H-imidazole-5-carboxamide] | 0.035
C=CC(=O)N1C[C@@H](F)[C@@H](NC(=O)c2c(C)nc(CNc3n[nH]c4cc(Cl)c(C(C)(C)C)cc34)n2C)C1 [Example 57, N-((3S,4R)-1-acryloyl-4-fluoropyrrolidin-3-yl)-2-(((5-(tert-butyl)-6-chloro-1H-indazol-3-yl)amino)methyl)-1,4-dimethyl-1H-imidazole-5-carboxamide] | 0.324
C=CC(=O)N1C[C@@H](C)[C@@H](NC(=O)c2c(C)nc(CNc3n[nH]c4cc(Cl)c(C(C)(C)C)cc34)n2C)C1 [Example 55, N-((3R,4R)-1-acryloyl-4-methylpyrrolidin-3-yl)-2-(((5-(tert-butyl)-6-chloro-1H-indazol-3-yl)amino)methyl)-1,4-dimethyl-1H-imidazole-5-carboxamide] | 0.024
C=CC(=O)N1C[C@H](NC(=O)c2c(C)nc(CNc3n[nH]c4cc(Cl)c(C(C)(C)C)cc34)n2C)[C@@H](OC)C1 [Example 63, N-((3S,4S)-1-acryloyl-4-methoxypyrrolidin-3-yl)-2-(((5-(tert-butyl)-6-chloro-1H-indazol-3-yl)amino)methyl)-1,4-dimethyl-1H-imidazole-5-carboxamide] | 0.084
C=CC(=O)N1CC(NC(=O)c2c(C(F)(F)F)nc(CNc3n[nH]c4cc(Cl)c(C(C)(C)C)cc34)n2C)C1 [Example 25, N-(1-acryloylazetidin-3-yl)-2-(((5-(tert-butyl)-6-chloro-1H-indazol-3-yl)amino)methyl)-1-methyl-4-(trifluoromethyl)-1H-imidazole-5-carboxamide] | 0.163
C=CC(=O)N1CC(NC(=O)c2cnc(CNc3n[nH]c4cc(Cl)c(C=C)cc34)n2C)C1 [Example 38, N-(1-acryloylazetidin-3-yl)-2-(((6-chloro-5-vinyl 1H-indazol-3-yl)amino)methyl)-1-methyl-1H-imidazole-5-carboxamide] | 2.17
C=CC(=O)N1CC(NC(=O)c2oc(CNc3n[nH]c4cc(Cl)c(C(C)(C)C)cc34)nc2C)C1 [Example 11, N-(1-acryloylazetidin-3-yl)-2-(((5-(tert-butyl)-6-chloro-1H-indazol-3-yl)amino)methyl)-4-methyloxazole-5-carboxamide] | 1.06
C=CC(=O)N1CC(NC(=O)c2c(Cl)c(CNc3n[nH]c4cc(Cl)c(C(C)(C)C)cc34)nn2C)C1 [Example 6, N-(1-acryloylazetidin-3-yl)-3-(((5-(tert-butyl)-6-chloro-1H-indazol-3-yl)amino)methyl)-4-chloro-1-methyl-1H-pyrazole-5-carboxamide] | 0.791
C=CC(=O)N1CC(NC(=O)c2c(I)nc(CNc3n[nH]c4cc(Cl)c(C(C)(C)C)cc34)n2C)C1 [Example 26, N-(1-acryloylazetidin-3-yl)-2-(((5-(tert-butyl)-6-chloro-1H-indazol-3-yl)amino)methyl)-4-iodo-1-methyl-1H-imidazole-5-carboxamide] | 0.069
C=CC(=O)N1CC(NC(=O)c2c(Cl)nc(CNc3n[nH]c4cc(Cl)c(C(=C)C(F)(F)F)cc34)n2C(C)C)C1 [Example 43, N-(1-acryloylazetidin-3-yl)-4-chloro-2-(((6-chloro-5-(3,3,3-trifluoroprop-1-en-2-yl)-1H-indazol-3-yl)amino)methyl)-1-isopropyl-1H-imidazole-5-carboxamide] | 0.809
C=CC(=O)N1CC(NC(=O)c2c(C)nc(CNc3n[nH]c4cc(Cl)c(C(C)(C)C)cc34)n2CC(F)(F)F)C1 [Example 22, N-(1-acryloylazetidin-3-yl)-2-(((5-(tert-butyl)-6-chloro-1H-indazol-3-yl)amino)methyl)-4-methyl-1-(2,2,2-trifluoroethyl)-1H-imidazole-5-carboxamide] | 0.055
